Common to all, as to format: physicochemical
The nature of data set [1]: LNP encapsulation efficiency of RNA (Ribogreen fluorescence assay). The note with it: sgRNA:mRNA 1:2. Here is the method: (§1) LNP compositions are analyzed for average particle size, polydispersity index (pdi), total RNA content, encapsulation efficiency of RNA, and zeta potential. LNP compositions may be further characterized by lipid analysis, AF4-MALS, NTA, and/or cryo-EM.
Encapsulation efficiency is calculated as (Total RNA−Free RNA)/Total RNA. A fluorescence-based assay (Ribogreen®, ThermoFisher Scientific) is used to determine total RNA concentration and free RNA. LNP samples are diluted appropriately with 1×TE buffer containing 0.2% Triton-X 100 to determine total RNA or 1×TE buffer to determine free RNA. Standard curves are prepared by utilizing the starting RNA solution used to make the compositions and diluted in 1×TE buffer+/−0.2% Triton-X 100. Diluted RiboGreen® dye (according to the manufacturer's instructions) is then added to each of the standards and samples and allowed to incubate for approximately 10 minutes at room temperature, in the absence of light. A SpectraMax M5 Microplate Reader (Molecular Devices) is used to read the samples with excitation, auto cutoff and emission wavelengths set to 488 nm, 515 nm, and 525 nm respectively. Total RNA and free RNA are determined from the appropriate standard curves. Alternatively, the total RNA concentration can be determined by a reverse-phase ion-pairing (RP-IP) HPLC method. Triton X-100 is used to disrupt the LNPs, releasing the RNA. The RNA is then separated from the lipid components chromatographically by RP-IP HPLC and quantified against a standard curve using UV absorbance at 260 nm.
(§2) In vivo editing efficiency for materials delivered with formulations including various amine lipid (or ionizable lipid) compounds in Experiments 1 through 14 as described in Tables 3 and 4 was assessed. Editing was measured using G000534 (SEQ ID NO: 5) which targets the rat TTR gene. Lipids described above were assessed for efficacy through in vivo editing experiments. LNPs were formulated at a 1:2 w/w ratio of sgRNA (SEQ ID NO: 5) and Cas9 mRNA (SEQ ID NO: 3). In Experiments 1 through 13, lipid components of the LNP are formulated in a molar ratio of 50% ionizable lipid, 38% cholesterol, 9% DSPC, and 3% PEG2K-DMG. In Experiment 14, lipid components of the LNP are formulated in a molar ratio of 50% ionizable lipid, 38% cholesterol, 9% DSPC, and 3% C13 Ether. The final LNPs used in different in vivo editing experiments were characterized to determine the encapsulation efficiency (% E), polydispersity index (PDI), and average particle size (Z-avg and number mean) according to the analytical methods provided above. The pKa values of each of the following ionizable lipids were also measured to be in the range of about 5.8 to about 7.6.
(§3) In vivo editing efficiency for materials delivered with formulations including various combinations of amine lipid (or ionizable lipid) and PEG lipid compounds was assessed as described in Tables 5 and 6. Editing was measured using G000534 (SEQ ID NO: 5) which targets the rat TTR gene. Lipids described above were assessed for efficacy through in vivo editing experiments. LNPs were formulated at a 1:2 w/w ratio of sgRNA (SEQ ID NO: 5) and Cas9 mRNA (SEQ ID NO:3). Lipid components of the LNP are formulated in a molar ratio of 50% ionizable lipid, 38% cholesterol, 9% DSPC, and 3% of various PEG lipids (e.g., PEG2K-DMG, C13 Ether, C14 Ether). The final LNPs used in different in vivo editing experiments were characterized to determine the encapsulation efficiency (% E), polydispersity index (PDI), and average particle size (Z-avg and number mean) according to the analytical methods provided above. The pKa values of each of the following ionizable lipids were also measured to be in the range of about 5.8 to about 7.6.
In vivo editing efficiency for materials delivered with formulations including various amine lipid (or ionizable lipid) compounds as described in Tables 7 and 8 was assessed. […]

Data set [2] can be described thus: LNP average particle size and polydispersity by dynamic light scattering. The settings on record: sgRNA:mRNA 1:2. The method, then:
Dynamic Light Scattering (“DLS”) is used to characterize the polydispersity index (“pdi” or “PDI”) and size of the LNPs of the present disclosure. DLS measures the scattering of light that results from subjecting a sample to a light source. PDI, as determined from DLS measurements, represents the distribution of particle size (around the mean particle size) in a population, with a perfectly uniform population having a PDI of zero.
as §1
Average particle size and polydispersity are measured by dynamic light scattering (DLS) using a Malvern Zetasizer DLS instrument. LNP samples were diluted with PBS buffer prior to being measured by DLS. Z-average diameter (“Z-avg”) which is an intensity-based measurement of average particle size was reported along with number average diameter (“number mean”) and PDI. A Malvern Zetasizer instrument is also used to measure the zeta potential of the LNP. Samples are diluted 1:17 (50 μL into 800 μL) in 0.1×PBS, pH 7.4 prior to measurement.
as §2, §3
In vivo editing efficiency for materials delivered with formulations including various amine lipid (or ionizable lipid) compounds as described in Tables 7 and 8 was assessed. Editing was measured using G000534 (SEQ ID NO: 5) which targets the rat TTR gene. Lipids described above were assessed for efficacy through in vivo editing experiments. LNPs were formulated at a 1:2 w/w ratio of sgRNA (SEQ ID NO: 5) and Cas9 mRNA (SEQ ID NO: 3). Lipid components of the LNP were formulated in a molar ratio of 50% ionizable lipid, 38% cholesterol, 9% DSPC, and 3% C13 Ether. […]

Data set [3] is described as follows: pKa of unformulated amine lipid by TNS fluorescence. The settings on record: sodium phosphate buffer; Table 2; unformulated amine lipid, TNS; read-out: Lipid pKa. Here is the method:
The pKa of each amine lipid was determined according to the method in Jayaraman, et al. (Angew Chem Int Ed Engl 51(34), 2012, 8529-8533) with the following adaptations. The pKa was determined for unformulated amine lipid in ethanol. Lipid stock solutions (2.94 mM) were diluted into Sodium Phosphate Buffers (0.1 M, Boston Bioproducts) of different pH (pH-range: 4.5-9.0) yielding a final lipid concentration of approx. 100 μM. The test samples were supplemented with TNS {6-(p-Toluidino)-2-naphthalenesulfonic acid sodium salt}, incubated and the fluorescence intensity was measured using excitation and emission wavelengths of 321 nm and 448 nm, respectively. The recorded data were normalized and the respective pKa values were derived from sigmoidal fitting.

The mark [4] stands for this setting: Table 3, Experiments 1-13, LNP 50% ionizable lipid, 38% cholesterol, 9% DSPC, 3% PEG2K-DMG.
Setting [5] is: Table 3, Experiment 14, LNP with 3% C13 Ether.

As a reminder, the pKa is the pH at which an ionisable group is half protonated.

Molecules are shown by their SMILES. Several values for one entry are separate records, joined by “and”; a condition that tells them apart may be missing. Identical values can stand only once.

Turning to `CCCCCCCCOC(CCC(=O)OCC(COC(=O)CCC(OCCCCCCCC)OCCCCCCCC)COC(=O)OCCCN(CC)CC)OCCCCCCCC` [Compound 1, 2-((((3-(diethylamino)propoxy)carbonyl)oxy)methyl)propane-1,3-diyl bis(4,4-bis(octyloxy)butanoate)], the “% E (encapsulation efficiency)” value in data set [1] (setting [4]) was 98%. For the same molecule, in data set [2] (setting [4]), the Number mean was found to be 70 nm, the PDI came out at 0.06 and the Z-avg came to 80 nm.

As to `CCCCCCCCC(CCCCCCCC)OC(=O)CCCC(=O)OCC(COC(=O)CCCC(=O)OC(CCCCCCCC)CCCCCCCC)COC(=O)OCCCN(CC)CC` [Compound 2, O,O′-(2-((((3-(diethylamino)propoxy)carbonyl)oxy)methyl)propane-1,3-diyl) di(heptadecan-9-yl) diglutarate], in data set [3], the pKa is 6.23. Besides, the “% E (encapsulation efficiency)” value in data set [1] (setting [5]) was found to be 99%; in data set [1] (setting [4]) it was 98%. Besides, the Number mean was 74 nm in data set [2] (setting [5]); 65 nm and 72 nm in data set [2] (setting [4]). The PDI was 0.017 in data set [2] (setting [5]) and 0.01 in data set [2] (setting [4]). Besides, the Z-avg in data set [2] (setting [5]) is 80 nm; in data set [2] (setting [4]), 79 nm and 76 nm.

`CCCCCCCCC(CCCCCCCC)OC(=O)CCCCCC(=O)OCC(COC(=O)CCCCCC(=O)OC(CCCCCCCC)CCCCCCCC)COC(=O)OCCCN(CC)CC` [Compound 3, O′1,O1-(2-((((3-(diethylamino)propoxy)carbonyl)oxy)methyl)propane-1,3-diyl) 7,7′-di(heptadecan-9-yl) di(heptanedioate)]: the “% E (encapsulation efficiency)” value in data set [1] (setting [4]) was determined as 96%. Besides, in data set [2] (setting [4]), the Number mean is 72 nm, the PDI was found to be 0.004 and the Z-avg is given as 86 nm.

Regarding `CCCCC/C=C\C/C=C\CCCCCCCC(=O)OCC(COC(=O)CCCCCC(=O)OCC(CCCC)CCCCCC)COC(=O)OCCCN(CC)CC` (stereo not shown) [Compound 4, 1-(2-butyloctyl) 7-(3-(((3-(diethylamino)propoxy)carbonyl)oxy)-2-((((9Z,12Z)-octadeca-9,12-dienoyl)oxy)methyl)propyl) heptanedioate], the pKa in data set [3] was determined as 6.05. In addition, the “% E (encapsulation efficiency)” value in data set [1] (setting [4]) stood at 99%. Also, in data set [2] (setting [4]), the Number mean is 78 nm and 83 nm; the PDI was 0.02 and 0.04; the Z-avg is 95 nm and 91 nm.

On to `CCCCCCC(CCCC)COC(=O)CCCCCC(=O)OCC(COC(=O)CCCCCC(=O)OCC(CCCC)CCCCCC)COC(=O)OCCCN(CC)CC` (stereo not shown) [Compound 5, 7,7′-bis(2-butyloctyl) O′1,O1-(2-((((3-(diethylamino)propoxy)carbonyl)oxy)methyl)propane-1,3-diyl) di(heptanedioate)], for which the “% E (encapsulation efficiency)” value in data set [1] (setting [4]) was 97%. For the same molecule, in data set [2] (setting [4]), the Number mean was 90 nm, the PDI was 0.01 and the Z-avg is given as 109 nm.

Consider `CCCCCCCCC(CCCCCCCC)OC(=O)CCCC(=O)OCC(C)(COC(=O)CCCC(=O)OC(CCCCCCCC)CCCCCCCC)COC(=O)NCCN(CC)CC` [Compound 36, O,O′-(2-((((2-(diethylamino)ethyl)carbamoyl)oxy)methyl)-2-methylpropane-1,3-diyl) di(heptadecan-9-yl) diglutarate], for which the “% E (encapsulation efficiency)” value in data set [1] (setting [4]) was 98%. In data set [2] (setting [4]), the Number mean is 87 nm, the PDI came to 0.056 and the Z-avg was 103 nm.

As for `CCCCCCCCCCCC(=O)OCC(COC(=O)CCC(OCCCCCCCC)OCCCCCCCC)COC(=O)OCCCN(CC)CC` (stereo not shown) [Compound 41, 3-((4,4-bis(octyloxy)butanoyl)oxy)-2-((((3-(diethylamino)propoxy)carbonyl)oxy)methyl)propyl Dodecanoate], the “% E (encapsulation efficiency)” value in data set [1] (setting [4]) amounted to 98%. In data set [2] (setting [4]), the Number mean is recorded as 75 nm, the PDI amounted to 0.05 and the Z-avg was found to be 83 nm.

Take `CCCCCCCCOC(CCC(=O)OCC(COC(=O)CC(CCCC)CCCCCC)COC(=O)OCCCN(CC)CC)OCCCCCCCC` (stereo not shown) [Compound 43, 3-((4,4-bis(octyloxy)butanoyl)oxy)-2-((((3-(diethylamino)propoxy)carbonyl)oxy)methyl)propyl 3-butylnonanoate]: the “% E (encapsulation efficiency)” value in data set [1] (setting [4]) came out at 98%. Also, in data set [2] (setting [4]), the Number mean is given as 75 nm, the PDI turned out to be 0.04 and the Z-avg amounted to 85 nm.

For `CCCCCCCCOC(CCC(=O)OCC(COC(=O)NCCN(CC)CC)COC(=O)C(CCCC)CCCCCC)OCCCCCCCC` (stereo not shown) [Compound 48, 3-((4,4-bis(octyloxy)butanoyl)oxy)-2-((((2-(diethylamino)ethyl)carbamoyl)oxy)methyl)propyl 2-butyloctanoate], in data set [1] (setting [4]), the “% E (encapsulation efficiency)” value was found to be 94%. Moreover, in data set [2] (setting [4]), the Number mean is 81 nm, the PDI is on record as 0.02 and the Z-avg is on record as 87 nm.

Turning to `CCCCCCCCC(CCCCCCCC)CC(=O)OCCC(=O)OCC(COC(=O)CCCC(=O)OC(CCCCCCCC)CCCCCCCC)COC(=O)NCCN(CC)CC` (stereo not shown) [Compound 63, 3-(((2-(diethylamino)ethyl)carbamoyl)oxy)-2-(((3-((3-octylundecanoyl)oxy)propanoyl)oxy)methyl)propyl heptadecan-9-yl Glutarate], the “% E (encapsulation efficiency)” value in data set [1] (Table 7, LNP with 3% C13 Ether) was determined as 96%. Moreover, in data set [2] (Table 7, LNP with 3% C13 Ether), the Number mean came out at 73 nm, the PDI came to 0.02 and the Z-avg was determined as 80 nm.

These data come from patent publication US20260337153A1, “IONIZABLE AMINE LIPIDS” (Intellia Therapeutics, Inc., priority 2023, published 2026).
